From article PMC9748900, “Unconventional isoquinoline-based SERMs elicit fulvestrant-like transcriptional programs in ER+ breast cancer cells” (NPJ Breast Cancer, 2022)
“Also recorded” adds a separate entry of the source. Read-outs that look alike come from different tables or passages of the source.

What was measured:
[1] = system: Ishikawa endometrial cells; assay: Alkaline phosphatase (AP) assay in Ishikawa cells; type: cell-based, human; settings: 72 h; for AP1 Induction: 1 nM E2 or 1 μM compound, absorbance at 405 nm, mean + std. dev., n = 3-9
From the text: SERM enhancement of ERα accumulation in breast cancer cells correlates with uterotrophic activities[22],[30]. Despite the inclusion of side arms from known SERDs, most T6Is appeared SERM-like in breast cancer cells as they increased ERα levels. To measure the SERM-agonist activities of the T6Is, we employed an AP activity assay in Ishikawa endometrial cells[22],[32],[40]. […] Many T6Is show unexpected AP activities in these cells. […] Therefore, we would expect these SERMs to show a greater induction of AP (Supplementary Fig. 5). […] This difference was significant (p = 0.004) compared to 4OHT, which measured 0.68 ± 0.12 absorbance units. In most studies of SERM-agonist activities, AP assays are combined with increases in uterine wet-weight in vivo[22],[41],[42].
AP assays were performed as described. Briefly, 15,000 Ishikawa cells were seeded into 96-well plates then placed in serum-starved medium for 48–72 h. Cells were treated for three days with veh, hormone, SERM, or SERD. The media was aspirated and the cells were frozen at −80 °C for at least 24 h. Cells were thawed then incubated with p-nitrophenyl phosphate (ThermoFisher) chromogenic AP substrate. After 60 min at 40 °C, absorbance was read at 405 nm on a BioTek Cytation 5 plate reader.

Ishikawa cells = assay: Ishikawa cell count (endometrial proliferation); type: cell-based, human; settings: 1 nM E2 or 1 μM antiestrogen, 144 h
[2] = system: transcriptome of T47D breast cancer cells; assay: RNA sequencing of T47D cells; type: cell-based
Description: We next used RNA transcriptomic analysis (RNAseq) to identify differentially affected genes. […] All sequencing runs were performed with three replicates per treatment.
T47D breast cancer cells were grown in 6-well dishes at 50,000 cells per well. […] After 24 h, they were placed in serum-starved media for 48 h. […] RNA was isolated using a Qiagen RNeasy Kit then sent to Novogene for sequencing and bioinformatics analysis.

[3] = system: gene expression in T47D breast cancer cells; assay: qPCR gene expression in T47D cells; type: cell-based; settings: 1 μM + 1 nM E2, 16 h
[4] = system: gene expression in MCF7:WS8 breast cancer cells; assay: qPCR gene expression in MCF7:WS8 cells; settings: MCF7:WS8, 1 μM + 1 nM E2
ERα = target: T1, ERα (Homo sapiens, UniProt P03372); assay: ERE transcriptional reporter gene assay in MCF7 cells; type: cell-based; set-up: endogenous in cells; host or cells: MCF7 cells with 3x-ERE-GFP reporter
T1 sequence (P03372 1-595): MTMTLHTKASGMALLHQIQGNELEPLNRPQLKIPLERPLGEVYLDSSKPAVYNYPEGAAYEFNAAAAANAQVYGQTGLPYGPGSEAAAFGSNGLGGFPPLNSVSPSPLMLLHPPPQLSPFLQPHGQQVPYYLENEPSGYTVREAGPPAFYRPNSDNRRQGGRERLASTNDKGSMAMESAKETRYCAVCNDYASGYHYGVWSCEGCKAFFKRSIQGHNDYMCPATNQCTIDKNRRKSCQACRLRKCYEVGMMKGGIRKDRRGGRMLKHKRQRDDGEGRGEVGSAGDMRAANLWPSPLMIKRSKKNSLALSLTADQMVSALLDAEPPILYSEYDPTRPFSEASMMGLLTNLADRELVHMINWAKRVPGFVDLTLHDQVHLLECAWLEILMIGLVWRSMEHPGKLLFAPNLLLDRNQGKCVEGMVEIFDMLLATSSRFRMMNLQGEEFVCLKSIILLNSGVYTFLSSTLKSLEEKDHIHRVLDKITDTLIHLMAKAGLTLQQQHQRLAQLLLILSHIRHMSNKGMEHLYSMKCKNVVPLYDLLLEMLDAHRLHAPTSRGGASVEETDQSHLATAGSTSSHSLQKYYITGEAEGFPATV
Description: A cyclopropyl group was used in place of RAD1901’s ethylamine. […] We initially synthesized 4 derivatives comprised of different pharmacophores on the analogous steroidal A ring (Fig. 2d) and used an ERE reporter gene assay in MCF7 breast cancer cells to measure their transcriptional inhibitory activities.
This assay was performed in accordance with a previous report. MCF7 breast cancer cells with a 3x-estrogen response element-green fluorescent protein (GFP) reporter gene construct under a CMV promoter were plated in 96-well dishes at 3000 cells per well. Cells were cultured for 48 h in stripped media that included charcoal stripped fetal bovine serum (FBS). Cells were treated with increasing concentrations of antiestrogen (5 pm to 1 µM) for 24 h. Subsequently, percent GFP-positive cells were imaged using a BioTek Cytation 5 live cell imager. All assays were performed three times with three technical replicates each.

T47D breast cancer cells = assay: Cellular proliferation (label-free cell count), T47D; type: cell-based; settings: 1 nM E2, normalized to vehicle
Description: In addition, we used a crystal violet assay to measure the effect of T6I-14-1 on MCF7 viability.
MCF7, MCF7:WS:8, Y537S ESR1 MCF7 and T47D breast cancer cell lines were grown in 96-well dishes at a starting cell count of 1000 cells per well. […] Cells were grown in a BioSpa attached to a BioTek Cytation 5 and were automatically counted every twelve hours for 7–10 days or until the E2-only wells reached confluence. Media was replaced every 4 days and drug was maintained in each media change. Each study was repeated three times with three technical replicates each.

[5] = MCF7, 1 nM E2, read-out: Log(IC50) (converted)

Q: CC/C(=C(\c1ccc(O)cc1)c1ccc(OCCN(C)C)cc1)c1ccccc1 [4OHT, 4-hydroxytamoxifen, reference compound] was tested. Which “AP1 Induction” value [1] did it give?
A: 0.67 + 0.12

Q: And the “AP induction (in words)” value ([1]; 1 μM)?
A: robust stimulation of AP activity

Q: And the Ishikawa cell count (Ishikawa cells)?
A: marginal but insignificant increase to cell count

Q: What does the source list for C[C@]12CC[C@@H]3c4ccc(O)cc4CC[C@H]3[C@@H]1CC[C@@H]2O [E2, 17β-estradiol]?
A: SUMO-related differentially expressed genes (RNAseq) [2]: downregulates SUMO1 and upregulates desumoylating enzymes including SENP1 and SENP8; Ishikawa cell count (Ishikawa cells): robust enhancement of proliferation

Q: How did the “CDK1 mRNA” value [3] turn out when Oc1ccc2c(c1)CC[C@H](c1ccccc1)[C@@H]2c1ccc(OCCN2CCCC2)cc1 [Laso, lasofoxifene] was run?
A: slightly upregulated CDK1

Q: What about the “RPS6KL1 mRNA” value [3] of the same compound?
A: only slightly enriched

Q: And the “AP1 Induction” value [1]?
A: 0.51 + 0.16

Q: What about the AP activity ([1]; 1 μM) of the same compound?
A: 0.51 ± 0.16 absorbance units

Q: And the “cMYC mRNA” value [4]?
A: upregulated cMYC but it was significantly less (p = 0.02) than T6I-29-1A

Q: With O=C(CC(F)(F)F)N1C(c2ccc(OCCN3CCCC3)cc2)c2ccc(O)cc2CC12CC2 (centres unmarked) [T6I-1C] as the compound, how does the IC50 (ERα; [5]) read?
A: 0.17 µM

Q: How did the IC50 (ERα; [5]) turn out when O=C(c1ccccc1)N1C(c2ccc(OCCN3CCCC3)cc2)c2ccc(O)cc2CC12CC2 (centres unmarked) [T6I-1D] was run?
A: 0.123 µM

Q: What about the IC50 (ERα; MCF7, 1 nM E2, read-out: anti-transcriptional IC50) of the same compound?
A: ~0.1 µM

Q: For CCN1CC(COc2ccc(C3c4ccc(O)cc4CC4(CC4)N3C(=O)c3ccccc3)cc2)C1 (centres unmarked) [T6I-3], which “anti-proliferative activity, cell count after 7 days (Fig. 7)” value (T47D breast cancer cells) is on record?
A: did not improve anti-proliferative activities

Q: And the “AP1 Induction” value [1]?
A: 0.34 + 0.07

Q: With O=C(c1ccccc1)N1C(c2ccc(OCC3CN(CCCF)C3)cc2)c2ccc(O)cc2CC12CC2 (centres unmarked) [T6I-4A] as the compound, how does the “AP1 Induction” value [1] read?
A: 0.69 + 0.16

Q: What about the “AP induction (in words)” value ([1]; 1 μM) of the same compound?
A: significant induction of AP compared to the propylazetidine-containing T6I-4

Q: For O=C(c1ccccc1)N1C(c2ccc(OCC3CN(CCCCl)C3)cc2)c2ccc(O)cc2CC12CC2 (centres unmarked) [T6I-4B], which “AP1 Induction” value [1] is on record?
A: 0.61 + 0.10

Q: What about the “AP induction (in words)” value ([1]; 1 μM) of the same compound?
A: significant induction of AP compared to the propylazetidine-containing T6I-4

Q: Which “AP1 Induction” value [1] does the source give for CCCN1CC(COc2ccc(C3c4ccc(O)cc4CC4(CC4)N3C(=O)c3ccccc3)cc2)C1 (centres unmarked) [T6I-4] here?
A: 0.24 + 0.07

Q: And the “AP induction (in words)” value ([1]; 1 μM)?
A: AP induction similar to a SERD; also recorded: no measurable AP1 activity

Q: CCCCN1CCC(COc2ccc(C3c4ccc(O)cc4CC4(CC4)N3C(=O)c3ccccc3)cc2)C1 (centres unmarked) [T6I-22] was tested. Which “AP1 Induction” value [1] did it give?
A: 0.55 + 0.06

Q: Which “AP1 Induction” value [1] does the source give for CCCCCN1CCC(COc2ccc(C3c4ccc(O)cc4CC4(CC4)N3C(=O)c3ccccc3)cc2)C1 (centres unmarked) [T6I-23] here?
A: 0.44 + 0.08

Q: O=C(c1ccccc1)N1C(c2ccc(OCC3CCN(CCCF)C3)cc2)c2ccc(O)cc2CC12CC2 (centres unmarked) [T6I-29] was tested. Which “anti-proliferative activity, cell count after 7 days (Fig. 7)” value (T47D breast cancer cells) did it give?
A: slightly improved efficacy versus propyl alone

Q: And the “AP1 Induction” value [1]?
A: 0.63 + 0.08

Q: What about the “AP induction (in words)” value ([1]; 1 μM) of the same compound?
A: greater induction of AP1 compared to its separated chiral species

Q: Which “AP1 Induction” value [1] does the source give for CCCN1CCC(CCc2ccc(C3c4ccc(O)cc4CC4(CC4)N3C(=O)c3ccccc3)cc2)C1 (centres unmarked) [T6I-Me] here?
A: 0.57 + 0.08

Q: CCCN1CCC(CNc2ccc(C3c4ccc(O)cc4CC4(CC4)N3C(=O)c3ccccc3)cc2)C1 (centres unmarked) [T6I-NH] was tested. Which “AP1 Induction” value [1] did it give?
A: 0.50 + 0.09

Q: CCCN1CCC(CSc2ccc(C3c4ccc(O)cc4CC4(CC4)N3C(=O)c3ccccc3)cc2)C1 (centres unmarked) [T6I-SH] was tested. Which “AP1 Induction” value [1] did it give?
A: 0.42 + 0.07
